Test results as given in patent publication US9139551B2, “Preparation of a new class of water-soluble ammonium 2,3-dihydroxy-5-((2R,3R)-3,5,7-trihydroxy-4-oxochroman-2-yl) phenolates and their biological activity of alcohol elimination” (priority 2014, dated 2015).

Columns and labels:
Balb/C mice [1] = assay: Deintoxication test (agent 30 min before alcohol); conditions: 2 mg/kg gavage 30 min before 30% ethanol
Balb/C mice [2] = assay: Climbing net test; assay type: in vivo; conditions: 2 mg/kg gavage 30 min before alcohol
Procedure: Climbing Net Test • Groups design and treatment before experiment are as the same as that in deintoxication test. […] 30 minutes later all mice administrated alcohol (liquid Erguotou, ethonol concentration was diluted to 30%) 0.2 mL/kg BW and placed on a vertical metal net and measured the time when mice climbed on net.

Balb/C mice [3] = assay: Anti-alcoholism test (agent 30 min after alcohol); assay type: in vivo; conditions: 2 mg/kg gavage 30 min after 30% ethanol
Text: Anti-Alcoholism Tests • Groups design and treatment before experiment are as the same as that in Deintoxication test. […]

Balb/C mice [4] = assay: Plasma EtOH concentration assay; assay type: in vivo; conditions: intragastric 2 mg/kg
Procedure: Plasma EtOH Concentration Assay. • Blood samples from the tail vein of mice at different time points (0, 15, 30, 45, 60, 90, 120, 240, 480 and 720 minutes) after EtOH (30% ethanol, 0.2 ml/kg bw) or TDHM (2 mg/kg bw), PDHM (2 mg/kg bw) or DHM (2 mg/kg bw) gavage were collected for plasma EtOH concentrations (plasma [EtOH]) assays. (“BW” or “bw”: body weight) • Briefly, the Balb/C mice were put into a restraint tube and the tail was warmed at 37° C. The tail vein at the tip of the tail was punched with a sharp blade. Approximately 0.2 ml venous blood was dropped to a capillary blood collection tube containing lithium heparin (Ram Scientific). Blood samples were centrifuged at 2500 rpm for 20 min. The supernatant was collected and stored at −80° C. until assay. The EtOH content of each blood sample was measured in duplicate along with EtOH standards using the alcohol oxidase reaction procedures (EnzyChrom™ Ethanol Acid Assay Kit, ECET-100) (Liang et al., 2007). The sample preparations were the same as described above.

In the case of `O=C1c2c(O)cc(O)cc2O[C@H](c2cc(O)c(O)c(O)c2)[C@H]1O` [DHM, dihydromyricetin, reference compound], the “Sleep time M ± SD” value (Balb/C mice [1]) was 135.71 ± 25.25 min, the “Tolerance time M ± SD” value (Balb/C mice [1]) was 25 ± 7.29 min and the Dead number (Balb/C mice [1]; 20 mice) was 2 piece. For the same molecule, the Rate of drunk (Balb/C mice [1]; 20 mice) was 10%, the “climbing time vs normal control mice” value (Balb/C mice [2]) was “significantly prolonged” and the climbing (Balb/C mice [2]; vertical metal net) was 329.75 ± 76.46 min. For the same molecule, the “Sleep time M ± SD” value (Balb/C mice [3]) was 138.17 ± 33.73 min, the “Tolerance time M ± SD” value (Balb/C mice [3]) was 18.29 ± 10.07 min and the Rate of drunk (Balb/C mice [3]; 20 mice) was 0%. For the same molecule, the solubility (Solubility in water) was ≤ 264 µg/mL and the “blood alcohol concentration vs control group treated with saline” value (Balb/C mice [4]) was “significantly decreased”.
